In paper PMC6624297 (Cell Death & Disease, 2019):

Key:
[1] = molecular target: T1, human TS (hTS) (Homo sapiens, UniProt P04818); experiment: Thymidylate synthase (TS) spectrophotometric assay; assay type: biochemical; details: averages from triplicate assays
T1 construct: purchased ProSpec-Tany
Description: Recombinant human thymidylate synthase purchased from ProSpec-Tany Company. TS was assayed spectrophotometrically at 30 °C and pH 7.4 in a mixture containing 0.1 M 2-mercaptoethanol, 0.0003 M (6R,S)-tetrahydrofolate, 0.012 M formaldehyde, 0.02 M MgCl2, 0.001 M dUMP, 0.04 M Tris–HCl, 30 nM hTS, and 0.00075 M NaEDTA. […] The reaction was initiated by the addition of an amount of enzyme yielding a change in absorbance at 340 nm of 0.016/min in the absence of inhibitor.

[2] = molecular target: BRaf kinase (Homo sapiens, UniProt P15056); experiment: ADP-Glo kinase assay, BRaf; assay type: biochemical; details: averages from triplicate assays
Description: The ADP-Glo™ kinase assay (Promega, Madison, WI) was used to screen target compounds for their inhibition effects for BRaf, EGFR kinase. The kinase assay was carried out in a 96-well plate, in a volume of 25 μL HEPES (pH 7.3) solvent containing 1.6 μg/mL EGF, and 20 ng of EGFR kinase, or 50 ng BRaf kinase, and 10 μM ATP (Promega, Madison, WI). […] Reactions in each well were started immediately by adding ATP and kept going for half an hour under 30 °C in a constant temperature incubator (Bluepard, Shanghai, China). After the plate cooled for 5 min at room temperature, 25 μl of ADP-Glo reagent was added into each well to stop the reaction and consume the remaining […] within 40 min. At the end, 50 μl of kinase detection reagent was added into the well and incubated for 1 h to produce a luminescence signal.

[3] = system: A549 cells; experiment: MTT assay A549; assay type: cell-based, human
Description: Details are given in Supplementary Materials and Methods. Using probability unit and weighted regression method to calculate the IC50 value of compounds.
Total cells in the logarithmic growth phase were collected, digested using 0.25% pancreatic enzymes, and then diluted into single-cell suspensions using phosphate-buffered solution (PBS). These cells were seeded into 96-well plates at 4× 10^3-5× 10^3 cells per well (100 µL per well) and then A549, H460, OVCAR-3, SGC7901, MDA-MB-231, HCT116 and HepG2 were cultured at 37°Cin an incubator containing 5% CO2. After cell complete attachment, 100 µL of different concentrations of compounds (0.625 μM, 1.25 μM, 2.5μM, 5 μM, 10 μM) were added to the cells after the nutrient solution in each well was discarded, while no compound except 0.1% DMSO was added to cells in the control group; at the same time, each concentration was set up to 5 wells. In addition, 5 wells in each 96-well plate only received 100 µL of nutrient solution as a blank control. The plates were taken out after the cells were incubated with compounds for 24 h, and 20 µL of MTT solution (5 mg/mL) (Wuhan Boster Biotechnology Limited Company, Wuhan, China; item No. AR1156) was added into all the wells. After another time of incubation for 4 h at 37 °C, the nutrient solution in each well was discarded slowly, and 150 µL of DMSO was added to each well. The plates were shaken on a shaking table for 20 min. When the crystals were fully dissolved, the blank wells were used to zero the plate reader. The optical density (OD) of each well was detected at 490 nm. The IC50 value was determined as the concentration of the inhibitor that caused 50% inhibition. Using probability unit and weighted regression method to calculate the IC50 value of compounds.

[4] = system: A549 cells; experiment: Annexin V/PI staining flow cytometry, A549; assay type: cell-based, human; details: 24 h
Description: The density of the A549 cells and H460 in the logarithmic growth phase was adjusted to 1 × 10^6 cells/mL, and a total of 1 mL of cell suspension and 1 mL of L14e at different concentrations were added into each well with the final compound L14e concentration in each group as 0, 0.5, 1.0, and 1.5 μM. Details are given in Supplementary Materials and Methods.
The density of the A549 cells and H460 in the logarithmic growth phase was adjusted to 1 × 10^6 cells/mL, and then the cell suspension was seeded into a 6-well plate (Becton Dickinson and Company, USA). A total of 1 mL of cell suspension and 1 mL of compound L14e at different concentrations were added into each well with the final compound L14e concentration in each group as 0 μM, 0.5 μM, 1.0 μM, and 1.5μM. After cells were incubated for 24 h at 37 °C, 1 mL of cell suspension per well was collected and centrifuged at 1000 r/min for 10 min at 4°C, and the supernatant was removed. Then, 1 mL of cold PBS was added to the cell pellet, and was shaken lightly to re-suspend the cells. The cells were centrifuged at 1000 r/min at 4 °C for 10 min, and the supernatant was removed. These steps were repeated twice. The cells were re-suspended in 150µL of PBS, 10 µL of fluorescein isothiocyanate (FITC)-labeled Annexin V (Annexin V-FITC) (Promega Corporation, USA) and 5 µL of PI (Promega Corporation, USA) were added. The mixture was gently mixed and incubated in the dark at room temperature for 10 min then stained cells were analyzed using flow cytometry to test the levels of apoptotic cells (Becton Dickinson and Company, USA; FACS Calibur).

[5] = system: HUVECs; experiment: Tube formation in vitro; assay type: cell-based, human
Description: Matrigel was thawed at 4 °C and 50 μL of the solution were added to each well in a 96-well plate and formed a gel at 37 °C for 30 min. HUVECs were suspended at 1 × 10^4 cells in 100 μL of A549 cell supernatant with or without L14e (0, 0.5, 1.0, and 1.5 μM), and then added to each well. After 24h-incubation, the degree of tube formation was determined by counting the number of areas surrounded by tubes contained in 10 random fields, and expressed as mean ± SD. Using Image J for data analysis.

T1 sequence (P04818 whole entry): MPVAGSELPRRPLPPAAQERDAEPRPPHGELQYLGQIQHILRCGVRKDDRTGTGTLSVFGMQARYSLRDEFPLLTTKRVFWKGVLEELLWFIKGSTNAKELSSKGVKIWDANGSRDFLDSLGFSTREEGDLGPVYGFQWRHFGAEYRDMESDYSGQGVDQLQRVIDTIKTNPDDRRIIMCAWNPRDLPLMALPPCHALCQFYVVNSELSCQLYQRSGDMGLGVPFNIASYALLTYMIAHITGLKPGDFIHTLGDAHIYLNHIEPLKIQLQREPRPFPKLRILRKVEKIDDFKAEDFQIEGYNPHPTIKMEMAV
BRaf kinase, sequence (P15056 whole entry): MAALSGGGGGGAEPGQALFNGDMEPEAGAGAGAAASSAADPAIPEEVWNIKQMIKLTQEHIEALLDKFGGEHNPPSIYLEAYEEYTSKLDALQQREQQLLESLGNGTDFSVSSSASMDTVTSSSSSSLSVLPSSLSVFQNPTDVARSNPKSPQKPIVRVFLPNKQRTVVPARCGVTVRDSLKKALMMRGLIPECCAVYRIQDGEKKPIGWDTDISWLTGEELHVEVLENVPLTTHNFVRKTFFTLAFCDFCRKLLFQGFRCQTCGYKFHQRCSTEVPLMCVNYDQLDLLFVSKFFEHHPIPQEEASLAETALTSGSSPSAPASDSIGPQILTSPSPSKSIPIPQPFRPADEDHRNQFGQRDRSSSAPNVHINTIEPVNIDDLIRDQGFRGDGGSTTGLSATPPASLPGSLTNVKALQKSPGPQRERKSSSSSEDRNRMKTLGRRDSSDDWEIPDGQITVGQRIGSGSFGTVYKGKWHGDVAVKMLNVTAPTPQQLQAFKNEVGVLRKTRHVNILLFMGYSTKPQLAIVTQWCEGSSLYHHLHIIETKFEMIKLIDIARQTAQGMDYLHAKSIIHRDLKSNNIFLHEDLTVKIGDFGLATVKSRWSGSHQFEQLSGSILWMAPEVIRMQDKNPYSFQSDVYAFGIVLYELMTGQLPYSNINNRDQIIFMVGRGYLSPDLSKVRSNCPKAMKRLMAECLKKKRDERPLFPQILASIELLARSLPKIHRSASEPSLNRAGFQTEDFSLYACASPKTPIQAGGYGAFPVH

For O=C(Nc1cccc(Cl)c1)Nc1ccccc1NS(=O)(=O)c1c[nH]c(=O)[nH]c1=O [Compound L14e, N'-(3-chlorophenyl)-2-(2,4-dihydroxypyrimidine-5-sulfonamido)phenyl urea], the IC50 [1] was 1060 nM, the IC50 [2] was 1090 nM and the “anti-proliferative potency relative to PTX, A549” value [3] was “nearly five times higher”. For the same compound, the IC50 ([3]; Homo sapiens, A549, 24h of treatment, mean ± SD) was 670 ± 220 nM, the apoptotic rate ([4]; A549, 0.5 μM) was 19.3% and the “late apoptosis rate (Q2, Annexin V [+] PI [+])” value (“late apoptosis rate” for short) ([4]; A549, 0.5 μM) was 17.7%. For the same compound, the “late apoptosis rate” value ([4]; A549, 1.0 μM) was 27.5%, the apoptotic rate ([4]; A549, 1.5 μM) was 43.5% and the “late apoptosis rate” value ([4]; A549, 1.5 μM) was 37.1%. The “expression of phosphorylated VEGFR-2 (Tyr1175) in HUVECs” value ([5]; dose-dependent) was “inhibiting the expression of phosphorylated VEGFR-2” and the “tube formation of HUVECs” value ([5]; supernatant of A549 cells treated with 0.5, 1.0, 1.5 μM, 24 h) was “inhibited tube formation”.
